The values below come from US20080269142A1, “ENDOGENOUS THIADIAZABICYCLO GLUTATHIONE-ADDUCT” (priority 2006, published 2008).

The assay deals with EA.hy 926 endothelial cells. Put plainly: Apoptosis (morphological changes) in treated EA.hy 926 endothelial cells. Type of assay: cell-based. The protocol: EA.hy 926 endothelial cells were incubated in DMEM (10 mL) containing 10% FBS, 100 unit/mL of penicillin, and 100 μg/mL of streptomycin at 37° C. in an atmosphere of 5% CO2. After the cells reached 70-80% confluence (approximately 2×10^6 cells), the complete DMEM was removed and replaced with FBS-free DMEM for treatment with dimethyl-TOG.
As the result, there was little accumulation of TOG in the cells. […] Therefore, high doses of dimethyl-TOG (100 μM and 200 μM) were chosen to detect an apoptosis-inducing effect. When the cells were treated with dimethyl-TOG, typical morphological changes of apoptosis, such as detachment from the substrate, shrinkage, and membrane blebbing were observed as early as 1 h after treatment.
GGT mediates the first step of hydrolysis of extracellular GSH. The hydrolyzed amino acids will be transported back to the cells for GSH biosynthesis (4). Without GGT activity, there would be accumulation of GSH in the extracellular medium and depletion of intracellular GSH.

Regarding `CCCCCC(=O)/C=C/C=O` [ONE, 4-oxo-2(E)-nonenal], where the note is “10 μM ONE, 8 h”, the “apoptosis after 8 h of incubation” value is on record as “most of the cells treated with 10 μM ONE went to complete apoptosis”. The apoptosis-inducing effect result (ONE 1 μM alone) was “no apoptosis-inducing effect”.
